Key:
Assay type in all cases: in vivo
[1] = system: Surinam grass (Brachiaria decumbens); assay: Test C pre/postemergence; conditions: Urochloa decumbens, post-emergence, Postemergence
Excerpt: (§1) Seeds or nutlets of plant species selected from bermudagrass (Cynodon dactylon), Surinam grass (Brachiaria decumbens), cocklebur (Xanthium strumarium), corn (Zea mays), crabgrass (Digitaria sanguinalis), woolly cupgrass (Eriochloa villosa), giant foxtail (Setaria faberii), goosegrass (Eleusine indica), johnsongrass (Sorghum halepense), kochia (Kochia scoparia), lambsquarters (Chenopodium album), morningglory (Ipomoea coccinea), eastern black nightshade (Solanum ptycanthum), yellow nutsedge (Cyperus esculentus), pigweed (Amaranthus retroflexus), common ragweed (Ambrosia elatior), soybean (Glycine max), common (oilseed) sunflower (Helianthus annuus), and velvetleaf (Abutilon theophrasti) were planted and treated preemergence with test chemicals formulated in a non-phytotoxic solvent mixture which included a surfactant.
(§2) At the same time, plants selected from these crop and weed species and also winter barley (Hordeum vulgare), blackgrass (Alopecurus myosuroides), canarygrass (Phalaris minor), chickweed (Stellaria media), downy brome (Bromus tectorum), green foxtail (Setaria viridis), Italian ryegrass (Lolium multiflorum), wheat (Triticum aestivum), wild oat (Avena fatua) and windgrass (Apera spica-venti) were treated with postemergence applications of some of the test chemicals formulated in the same manner. Plants ranged in height from 2 to 18 cm (1- to 4-leaf stage) for postemergence treatments. Plant species in the flooded paddy test consisted of rice (Oryza sativa), umbrella sedge (Cyperus difformis), duck salad (Heteranthera limosa) and barnyardgrass (Echinochloa crus-galli) grown to the 2-leaf stage for testing. Treated plants and controls were maintained in a greenhouse for 12 to 14 days, after which time all species were compared to controls and visually evaluated. Plant response ratings, summarized in Table C, are based on a scale of 0 to 100 where 0 is no effect and 100 is complete control. A dash (-) response means no test result.

[2] = system: common ragweed (Ambrosia elatior); assay: Test C pre/postemergence; conditions: Ambrosia artemisiifolia, post-emergence, Postemergence
Excerpt: as §1, §2

[3] = system: giant foxtail (Setaria faberii); assay: Test C pre/postemergence; conditions: Setaria faberi, post-emergence, Postemergence
Excerpt: as §1, §2

[4] = system: johnsongrass (Sorghum halepense); assay: Test C pre/postemergence; conditions: Sorghum halepense, post-emergence, Postemergence
Excerpt: as §1, §2

[5] = system: kochia (Kochia scoparia); assay: Test C pre/postemergence; conditions: Bassia scoparia, post-emergence, Postemergence
Excerpt: as §1, §2

[6] = system: morningglory (Ipomoea coccinea); assay: Test C pre/postemergence; conditions: Ipomoea, post-emergence, Postemergence
Excerpt: as §1, §2

[7] = system: pigweed (Amaranthus retroflexus); assay: Test C pre/postemergence; conditions: Amaranthus retroflexus, post-emergence, Postemergence
Excerpt: as §1, §2

[8] = system: soybean (Glycine max); assay: Test C pre/postemergence; conditions: Glycine max, post-emergence, Postemergence
Excerpt: as §1, §2

[9] = system: woolly cupgrass (Eriochloa villosa); assay: Test C pre/postemergence; conditions: Eriochloa villosa, post-emergence, Postemergence
Excerpt: as §1, §2

[10] = system: yellow nutsedge (Cyperus esculentus); assay: Test C pre/postemergence; conditions: Cyperus, post-emergence, Postemergence
Excerpt: as §1, §2

[11] = system: chickweed (Stellaria media); assay: Test C postemergence; conditions: Stellaria media, post-emergence
Excerpt: as §1, §2

CCOC(=O)c1nc(-c2ccc(Br)cc2)nc(N)c1Cl [Compound 94, ethyl 6-amino-2-(4-bromophenyl)-5-chloro-4-pyrimidinecarboxylate]
pest or weed control at 125 g/ha ([1]; 125 g ai/ha, scale 0 to 100 (0 no effect, 100 complete control), read-out: Surinam Grass plant response rating): 100% | pest or weed control at 16 g/ha ([1]; 16 g ai/ha, read-out: Plant response rating (scale of 0 to 100), Surinam Grass): 50% | pest or weed control at 31 g/ha ([1]; 31 g ai/ha, read-out: Plant response rating (scale of 0 to 100), Surinam Grass): 60% | pest or weed control at 62 g/ha ([1]; 62 g ai/ha, read-out: Plant response rating (scale of 0 to 100), Surinam Grass): 90% | pest or weed control at 16 g/ha ([2]; 16 g ai/ha, read-out: Plant response rating (scale of 0 to 100), Ragweed): 90% | pest or weed control at 31 g/ha ([2]; 31 g ai/ha, read-out: Plant response rating (scale of 0 to 100), Ragweed): 90% | pest or weed control at 62 g/ha ([2]; 62 g ai/ha, read-out: Plant response rating (scale of 0 to 100), Ragweed): 95% | pest or weed control at 125 g/ha ([2]; 125 g ai/ha, scale 0 to 100 (0 no effect, 100 complete control), read-out: Ragweed plant response rating): 100% | pest or weed control at 125 g/ha ([3]; 125 g ai/ha, scale 0 to 100 (0 no effect, 100 complete control), read-out: Foxtail, Giant plant response rating): 80% | pest or weed control at 16 g/ha ([3]; 16 g ai/ha, read-out: Plant response rating (scale of 0 to 100), Foxtail, Giant): 30% | pest or weed control at 31 g/ha ([3]; 31 g ai/ha, read-out: Plant response rating (scale of 0 to 100), Foxtail, Giant): 65% | pest or weed control at 62 g/ha ([3]; 62 g ai/ha, read-out: Plant response rating (scale of 0 to 100), Foxtail, Giant): 80% | pest or weed control at 16 g/ha ([4]; 16 g ai/ha, read-out: Plant response rating (scale of 0 to 100), Johnsongrass): 55% | pest or weed control at 31 g/ha ([4]; 31 g ai/ha, read-out: Plant response rating (scale of 0 to 100), Johnsongrass): 60% | pest or weed control at 62 g/ha ([4]; 62 g ai/ha, read-out: Plant response rating (scale of 0 to 100), Johnsongrass): 75% | pest or weed control at 125 g/ha ([4]; 125 g ai/ha, scale 0 to 100 (0 no effect, 100 complete control), read-out: Johnsongrass plant response rating): 90% | pest or weed control at 16 g/ha ([5]; 16 g ai/ha, read-out: Plant response rating (scale of 0 to 100), Kochia): 75% | pest or weed control at 31 g/ha ([5]; 31 g ai/ha, read-out: Plant response rating (scale of 0 to 100), Kochia): 90% | pest or weed control at 62 g/ha ([5]; 62 g ai/ha, read-out: Plant response rating (scale of 0 to 100), Kochia): 95% | pest or weed control at 125 g/ha ([5]; 125 g ai/ha, scale 0 to 100 (0 no effect, 100 complete control), read-out: Kochia plant response rating): 100% | pest or weed control at 16 g/ha ([6]; 16 g ai/ha, read-out: Plant response rating (scale of 0 to 100), Morningglory): 60% | pest or weed control at 31 g/ha ([6]; 31 g ai/ha, read-out: Plant response rating (scale of 0 to 100), Morningglory): 80% | pest or weed control at 62 g/ha ([6]; 62 g ai/ha, read-out: Plant response rating (scale of 0 to 100), Morningglory): 90% | pest or weed control at 125 g/ha ([6]; 125 g ai/ha, scale 0 to 100 (0 no effect, 100 complete control), read-out: Morningglory plant response rating): 100% | pest or weed control at 16 g/ha ([7]; 16 g ai/ha, read-out: Plant response rating (scale of 0 to 100), Pigweed): 95% | pest or weed control at 31 g/ha ([7]; 31 g ai/ha, read-out: Plant response rating (scale of 0 to 100), Pigweed): 100% | pest or weed control at 62 g/ha ([7]; 62 g ai/ha, read-out: Plant response rating (scale of 0 to 100), Pigweed): 100% | pest or weed control at 125 g/ha ([7]; 125 g ai/ha, scale 0 to 100 (0 no effect, 100 complete control), read-out: Pigweed plant response rating): 100% | plant injury at 16 g/ha ([8]; 16 g ai/ha, read-out: Plant response rating (scale of 0 to 100), Soybean): 100% | plant injury at 31 g/ha ([8]; 31 g ai/ha, read-out: Plant response rating (scale of 0 to 100), Soybean): 100% | plant injury at 62 g/ha ([8]; 62 g ai/ha, read-out: Plant response rating (scale of 0 to 100), Soybean): 100% | plant injury at 125 g/ha ([8]; 125 g ai/ha, scale 0 to 100 (0 no effect, 100 complete control), read-out: Soybean plant response rating): 100% | pest or weed control at 16 g/ha ([9]; 16 g ai/ha, read-out: Plant response rating (scale of 0 to 100), Cupgrass, Woolly): 60% | pest or weed control at 31 g/ha ([9]; 31 g ai/ha, read-out: Plant response rating (scale of 0 to 100), Cupgrass, Woolly): 80% | pest or weed control at 62 g/ha ([9]; 62 g ai/ha, read-out: Plant response rating (scale of 0 to 100), Cupgrass, Woolly): 90% | pest or weed control at 125 g/ha ([9]; 125 g ai/ha, scale 0 to 100 (0 no effect, 100 complete control), read-out: Cupgrass, Woolly plant response rating): 90% | pest or weed control at 16 g/ha ([10]; 16 g ai/ha, read-out: Plant response rating (scale of 0 to 100), Nutsedge, Yellow): 55% | pest or weed control at 31 g/ha ([10]; 31 g ai/ha, read-out: Plant response rating (scale of 0 to 100), Nutsedge, Yellow): 60% | pest or weed control at 62 g/ha ([10]; 62 g ai/ha, read-out: Plant response rating (scale of 0 to 100), Nutsedge, Yellow): 70% | pest or weed control at 125 g/ha ([10]; 125 g ai/ha, scale 0 to 100 (0 no effect, 100 complete control), read-out: Nutsedge, Yellow plant response rating): 75% | pest or weed control at 31 g/ha ([11]; 31 g ai/ha, read-out: Plant response rating (scale of 0 to 100), Chickweed): 45% | pest or weed control at 62 g/ha ([11]; 62 g ai/ha, read-out: Plant response rating (scale of 0 to 100), Chickweed): 50% | pest or weed control at 125 g/ha ([11]; 125 g ai/ha, scale 0 to 100 (0 no effect, 100 complete control), read-out: Chickweed plant response rating): 95%

From patent publication US8802597B2, “Herbicidal pyrimidines” (E I du Pont de Nemours and Company, priority 2003, dated 2014)
